Assay results reported in patent US6632829B2, “Sulfonamides and derivatives thereof that modulate the activity of endothelin” (Texas Biotechnology Corp., priority 1996, dated 2003).
Several values for one entry are separate records, joined by “and”; a condition that tells them apart may be missing. Equal values may be shown once.

How the values were obtained:
human ETA receptors = molecular target: T1, human ETA receptors (Homo sapiens, UniProt P25101); assay: Endothelin binding inhibition, Binding Test #1: competition with 125I-ET-1 for ETA receptors on TE 671 cell membranes
T1 construct: endogenous in cells; host or cells: TE 671 cells (ATCC HTB 139), membrane preparation
T1 sequence (P25101 21-427): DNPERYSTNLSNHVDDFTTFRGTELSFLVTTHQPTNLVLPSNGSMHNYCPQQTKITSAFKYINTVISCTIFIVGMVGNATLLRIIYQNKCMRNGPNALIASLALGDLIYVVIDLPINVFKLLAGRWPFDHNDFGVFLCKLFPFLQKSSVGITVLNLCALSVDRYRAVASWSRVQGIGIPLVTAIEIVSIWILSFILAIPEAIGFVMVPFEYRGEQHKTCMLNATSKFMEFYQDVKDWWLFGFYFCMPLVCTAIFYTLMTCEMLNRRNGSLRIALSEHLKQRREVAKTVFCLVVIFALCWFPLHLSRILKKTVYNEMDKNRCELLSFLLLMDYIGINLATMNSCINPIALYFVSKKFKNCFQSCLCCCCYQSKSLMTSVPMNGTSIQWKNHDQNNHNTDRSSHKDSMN
Experimental: (§1) Cells from multiple flasks were collected by scraping, pooled and centrifuged for 10 min at 190×g. The cells were resuspended in phosphate buffered saline (PBS) containing 10 mM EDTA using a Tenbroeck homogenizer. The suspension was centrifuged at 4° C. at 57,800×g for 15 min, the pellet was resuspended in 5 mL of buffer A (5 mM HEPES buffer, pH 7.4 containing aprotinin (100 KIU/mL)) and then frozen and thawed once. 5 mL of Buffer B (5 mM HEPES Buffer, pH 7.4 containing 10 mM MnCl2 and 0.001% deoxyribonuclease Type 1) was added, the suspension mixed by inversion and then incubated at 37° C. for 30 minutes. The mixture was centrifuged at 57,800×g as described above, the pellet washed twice with buffer A and then resuspended in buffer C (30 mM HEPES buffer, pH 7.4 containing aprotinin (100 KIU/mL) to give a final protein concentration of 2 mg/mL and stored at −70° C. until use.
The membrane suspension (50 μL), containing up to 8 μg of membrane protein, was added to each of (A), (B), or (C). […] Alternatively, the incubation was conducted at 24° C.
The supernatant, containing unbound radioactivity, was decanted and the pellet counted on a Genesys multiwell gamma counter. The degree of inhibition of binding (D) was calculated according to the following equation: [formula]
Each test was generally performed in triplicate.

human ETB receptor = molecular target: T2, human ETB receptor (Homo sapiens, UniProt P24530); assay: Endothelin binding inhibition, Binding Test #2: competition with 125I-ET-1 for ETB receptors on transfected COS7 cell membranes
T2 construct: expressed in transfected cells; host or cells: COS7 cells
T2 sequence (P24530 27-442): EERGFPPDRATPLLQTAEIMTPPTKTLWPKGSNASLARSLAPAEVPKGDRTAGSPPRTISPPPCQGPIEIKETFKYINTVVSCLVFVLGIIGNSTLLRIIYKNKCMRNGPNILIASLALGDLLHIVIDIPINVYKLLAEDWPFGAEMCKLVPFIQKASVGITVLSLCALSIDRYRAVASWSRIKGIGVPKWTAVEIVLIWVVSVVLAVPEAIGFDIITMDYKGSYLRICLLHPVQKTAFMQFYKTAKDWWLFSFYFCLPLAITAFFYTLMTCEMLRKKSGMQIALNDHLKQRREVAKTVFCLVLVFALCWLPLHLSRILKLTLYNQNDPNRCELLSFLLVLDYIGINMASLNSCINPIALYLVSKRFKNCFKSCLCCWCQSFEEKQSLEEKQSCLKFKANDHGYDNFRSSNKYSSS
From the text: Compounds that are potential endothelin antagonists are identified by testing their ability to compete with ^125I-labeled ET-1 for binding to human ETA receptors or ETB receptors present on isolated cell membranes. The effectiveness of the test compound as an antagonist or agonist of the biological tissue response of endothelin can also be assessed by measuring the effect on endothelin induced contraction of isolated rat thoracic aortic rings. The ability of the compounds to act as antagonists or agonists for ETB receptors can be assess by testing the ability of the compounds are to inhibit endothelin-1 induced prostacyclin release from cultured bovine aortic endothelial cells.
COS7 cells were transfected with DNA encoding the ETB receptor, The resulting cells, which express the human ETB receptor, were grown to confluence in T-150 flasks. Membrane was prepared as described above. The binding assay was performed as described above using the membrane preparation diluted with binding buffer to a concentration of 1 μg/50 μL.
as §1, with “Briefly, the COS7 cells, described above, that had been transfected with DNA encoding the ETB receptor and express the human ETB receptor on their surfaces were grown to confluence in T-175 flasks. Cells” for “Cells”, “C.” for “C. at”, “once. Five” for “once. 5”, “2 mg/mL.” for “2 mg/mL and stored at −70° C. until use.”
The binding assay was performed as described above using the membrane preparation diluted to give 1 μg/50 μL of binding buffer.

[1] = incubation at 4° C. (values without †)
[2] = incubation at 24° C. (values marked †)

Row | Compound | IC50 (human ETA receptors; [1]) [nM] | IC50 (human ETA receptors; [2]) | IC50 (human ETB receptor; [1]) [nM] | IC50 (human ETB receptor; [2]) [nM] | inhibition at 100 µM (human ETB receptor; read-out: ETB % inhibition @ 100 μM, @ 100 μM, incubation at 24° C.) [%]
1 | Cc1ccc(-c2ccc(S(=O)(=O)Nc3noc(C)c3Br)s2)cc1 [N-(4-bromo-5-methyl-3-isoxazolyl)-5-(4-methylphenyl)thiophene-2-sulfonamide] | 7100 | 15800 nM | 359 | 250 | –
2 | COc1cccc(NCc2sccc2S(=O)(=O)Nc2onc(C)c2C)c1 [N-(3,4-dimethyl-5-isoxazolyl))-2-[(3-methoxyanilino)methyl]thiophene-3-sulfonamide] | 214 | 933 nM | 5340 | 7700 | –
3 | Cc1noc(NS(=O)(=O)c2ccsc2C(=O)Nc2ccccc2C(=O)O)c1Br [N-(4-bromo-3-methyl-5-isoxazolyl)-2-[2-carboxylphenyl)aminocarbonyl]-thiophene-3-sulfonamide] | – | 210 nM | – | 20000 | –
4 | N-(3,4-dimethyl-5-isoxazolyl)-2-(4-tolylacetylphenyl)thiophene-3-sulfonamide | – | 2.7 nM | – | 29200 | –
5 | Cc1noc(NS(=O)(=O)c2sccc2Cc2ccc3c(c2)OCO3)c1Br [N-(4-bromo-3-methyl-5-isoxazolyl)-3-[(3,4-methylenedioxy)benzyl]thiophene-2-sulfonamide] | – | 8100 nM | – | 3200 | –
6 | Cc1noc(NS(=O)(=O)c2ccsc2C(=O)Oc2ccc3c(c2)OCO3)c1C [N-(3,4-dimethyl-5-isoxazolyl)-2-{(3,4-(methylenedioxy)phenoxy]carbonyl}thiophene-3-sulfonamide] | – | 3610 nM | – | – | 30
7 | Cc1noc(NS(=O)(=O)c2ccsc2NC(=O)Oc2ccc3c(c2)OCO3)c1Br [N-(4-bromo-3-methyl-5-isoxazolyl)-2-[3,4-(methylenedioxy)phenoxycarbonylamino]thiophene-3-sulfonamide] | – | 87 nM | – | 5900 | –
8 | Cc1noc(NS(=O)(=O)c2ccsc2C(=O)Cc2ccc3c(c2)OCO3)c1Cl [N-(4-chloro-3-methyl-5-isoxazolyl)-2-[3,4-(methylenedioxy)phenylacetyl]thiophene-3-sulfonamide] | – | 21 nM | – | 6500 | –
9 | COC(=O)c1c(C)cc(C)c(NC(=O)c2sccc2S(=O)(=O)Nc2onc(C)c2Cl)c1C [N-(4-chloro-3-methyl-5-isoxazolyl)-2-(3-methoxycarbonyl-2,4,6-trimethylphenylaminocarbonyl)thiophene-3-sulfonamide] | – | 0.321 nM and 0.92 nM | – | 16500 | –
10 | Cc1noc(NS(=O)(=O)c2ccsc2NC(=O)Nc2ccc3c(c2)OCO3)c1Br [N-(4-bromo-3-methyl-5-isoxazolyl)-2-[(3,4-methylenedioxy)phenylureido]thiophene-3-sulfonamide] | – | 570 nM | – | 1300 | –
11 | Cc1noc(NS(=O)(=O)c2ccsc2C(=O)Nc2c(CC#N)cc3c(c2CC#N)OCO3)c1Cl [N-(4-chloro-3-methyl-5-isoxazolyl)-2-[2-cyanomethyl-4,5-(methylenedioxy)-6-cyanomethyl]phenylaminocarbonylthiophene-3-sulfonamide] | – | 3.8 nM | – | 25000 | –
12 | Cc1ccc(OCc2sccc2S(=O)(=O)Nc2onc(C)c2Br)c(C)c1 [N-(4-bromo-3-methyl-5-isoxazolyl)-2-[(2,4-dimethylphenoxy)methyl]thiophene-3-sulfonamide] | – | 308 nM | – | 4480 | –
13 | COc1ccc(NC(=O)c2sccc2S(=O)(=O)Nc2onc(C)c2Cl)c(OC)c1 [N-(4-chloro-3-methyl-5-isoxazolyl)-2-[(2,4-dimethoxyphenyl)aminocarbonyl]thiophene-3-sulfonamide] | – | 158 nM | – | 63100 | –
14 | CCCc1ccc(-c2ccsc2S(=O)(=O)Nc2onc(C)c2Br)cc1 [N-(4-bromo-3-methyl-5-isoxazolyl)-3-(4-propylphenyl)thiophene-2-sulfonamide] | 87.3 | – | – | 8480 | –
15 | Cc1noc(NS(=O)(=O)c2ccsc2C(=O)Nc2cc3c(cc2CNS(C)(=O)=O)OCO3)c1Cl [N-(4-chloro-3-methyl-5-isoxazolyl)-2-[2-methanesulfonylaminomethyl)-4,5-(methylenedioxy)phenylaminocarbonyl]thiophene-3-sulfonamide] | – | 6.8 nM | – | 19800 | –
16 | Cc1noc(NS(=O)(=O)c2sccc2-c2ccc(C(C)C)cc2)c1Br [N-(4-bromo-3-methyl-5-isoxazolyl)-3-(4-iso-propylphenyl)thiophene-2-sulfonamide] | 218 | – | – | 28300 | –
17 | Cc1cc2c(cc1C=CCc1sccc1S(=O)(=O)Nc1onc(C)c1Br)OCO2 [N-(4-bromo-3-methyl-5-isoxazolyl)-2-[2-methyl-4,5-(methylenedioxy)cinnamyl]thiophene-3-sulfonamide] | – | 80.4 nM | – | 3280 | –
18 | COc1ccc2c(S(=O)(=O)Nc3onc(C)c3Cl)c(Cc3ccc4c(c3)OCO4)sc2c1 [N-(4-chloro-3-methyl-5-isoxazolyl)-6-methoxy-2-[3,4-(methylenedioxy)benzyl]benzo[b]thiophene-3-sulfonamide] | – | ~2000 nM | – | 2390 | –
19 | N-2-[3,4-(methylenedioxy)phenylacetyl]thiophene-3-sulfonamide | – | 1800 nM | – | 32500 | –
20 | Cc1noc(NS(=O)(=O)c2ccsc2C(=O)NC(=O)c2ccc3c(c2)OCO3)c1Br [N-(4-bromo-3-methyl-5-isoxazolyl)-2-[(3,4-methylenedioxy)benzoyl]aminocarbonyl]thiophene-3-sulfonamide] | – | 89 nM | – | 37000 | –
21 | Cc1ccc(C)c(CC(=O)c2sccc2S(=O)(=O)Nc2onc(C)c2Cl)c1 [N-(4-chloro-3-methyl-5-isoxazolyl)-2-(2,5-dimethylphenylacetyl)thiophene-3-sulfonamide] | – | 7 nM | – | 18000 | –
22 | Cc1cc(C)c(CNC(=O)c2sccc2S(=O)(=O)Nc2onc(C)c2Cl)c(C)c1CC#N [N-4-chloro-3-methyl-5-isoxazolyl)-2-(3-cyanomethyl-2,4,6-trimethylbenzylaminocarbonyl)thiophene-3-sulfonamide] | – | 531 nM | – | 81500 | –
23 | Cc1noc(NS(=O)(=O)c2ccsc2C(=O)NS(=O)(=O)c2cccc3c(N(C)C)cccc23)c1Br [N-(4-bromo-3-methyl-5-isoxazolyl)-2-[(5-dimethylamino-1-naphthyl)sulfonylaminocarbonyl]thiophene-3-sulfonamide] | – | 970 nM | – | 3900 | –
